{"source": "paper PMC10745926", "about": "“Synthesis and Evaluation of Compound Targeting α7 and β2 Subunits in Nicotinic Acetylcholinergic Receptor” (Molecules, 2023)", "key": {"α7 nAChR [1]": {"biological_target": "α7 nAChR", "set-up": "method as in PMID 24050653", "settings": "HEK293 cells transfected with α7 nAChRs; read-out: Binding affinity α7*; cited from earlier work"}, "α4β2 nAChR [2]": {"biological_target": "α4β2 nAChR", "set-up": "method as in PMID 24050653", "settings": "HEK293 cells transfected with α4β2 nAChRs; read-out: Binding affinity α4β2*; cited from earlier work"}, "α7 nAChR [3]": {"tested_on": "α7 nAChR", "experiment": "HEK293 cells transfected with α7 nAChRs (ASEM, literature)", "format": "binding", "settings": "from cited affinities"}, "α4β2* nAChR [4]": {"tested_on": "α4β2* nAChR", "settings": "cited from earlier work"}, "α7 nAChR [5]": {"biological_target": "T1, α7 nAChR (Rattus norvegicus, UniProt Q05941)", "set-up": "method as in PMID 18445710", "settings": "tested in rat; read-out: Binding affinity α7*; cited from earlier work"}, "α7 nAChR [6]": {"biological_target": "T1, α7 nAChR", "format": "binding"}, "α7 nAChR [7]": {"biological_target": "T1, α7 nAChR", "set-up": "method as in PMID 28875553", "settings": "rat cloned receptors labeled with α-[125I]BuTX; read-out: Binding affinity α7*; cited from earlier work"}, "α4β2* nAChR [8]": {"biological_target": "T2, α4β2* nAChR (Rattus norvegicus, UniProt P09483+P12390)", "T2 construct": "Horizontal brain slices, 10 µm thick from male Sprague Dawley rats; from tissue; host or cells: rat brain slices (male Sprague Dawley), several brain regions", "settings": "read-out: Binding affinity α4β2*; rat brain cortex labeled with 3H-epibatidine; cited from earlier work"}, "α4β2* nAChR [9]": {"biological_target": "T2, α4β2* nAChR", "experiment": "Rat brain homogenates labeled with 3H-cytisine (literature)", "format": "binding", "settings": "α4β2 value from 3H-cytisine rat brain homogenates, α7 from rat cloned receptors"}, "α4β2* nAChR [10]": {"biological_target": "T2, α4β2* nAChR", "format": "binding"}, "α4β2* nAChR [11]": {"biological_target": "T2, α4β2* nAChR", "experiment": "[3H]cytisine competition binding on rat brain slices (autoradiography)", "procedure": "Our previously published procedures were used for [^3H]cytisine experiments. Horizontal brain slices, 10 µm thick from male Sprague Dawley rats, were preincubated in the buffer (50 mmol/L Tris HCl containing 120 mmol/L NaCl, 5 mmol/L KCl, 2.5 mmol/L CaCl2, 1 mmol/L MgCl2, pH 7.4) for 10 min. The pre-incubation buffer was then discarded and the slices were incubated with [^3H]cytisine (2.5 nM, specific activity of 32.7 Ci/mmol) at 2 °C for 75 min. […] After incubation, slices were washed twice (2 min each wash) with ice-cold Tris buffer, pH 7.4, followed by a quick rinse in cold (0–5 °C) deionized water. The slides were then air dried and the radiolabeled brain sections were apposed on storage phosphor screens for two weeks (Perkin Elmer Multisensitive, Medium MS, New Jersy, USA). For autoradiographic analysis, the apposed phosphor screens were read and analyzed by OptiQuant acquisition and analysis program of the Cyclone Storage Phosphor System (Packard Instruments Co., Boston, MA, USA). Regions of interest of same size were drawn and analyzed on brain regions using OptiQuant software version 2 and binding of [^3H]cytisine measured in DLU/mm^2. Data were analyzed using following procedure: (a) the non-specific binding of [^3H]cytisine was subtracted for all samples; (b) the specific binding was normalized to 100% (no competitive ligand); and (c) the binding isotherms were fit to the Hill equation (KELL BioSoft software (v 6), Cambridge, UK)."}, "α7 nAChR [12]": {"biological_target": "T1, α7 nAChR", "experiment": "biochemical", "format": "binding"}, "human α4β2 nAChR [13]": {"tested_on": "human α4β2 nAChR", "settings": "cytisine, from cited affinities"}, "human α4β2 nAChR [14]": {"tested_on": "human α4β2 nAChR", "settings": "cited from earlier work"}, "human α7 nAChR": {"biological_target": "human α7 nAChR", "settings": "read-out: Binding affinity α7*; human α7 nAChR in SH-SY5Y cells; cited from earlier work"}, "α7 nAChR [15]": {"tested_on": "α7 nAChR", "experiment": "HEK293 membranes expressing α7 nAChRs (Iodo-ASEM, literature)", "format": "binding", "settings": "IodoASEM, from cited affinities"}, "α4β2 nAChR [16]": {"biological_target": "α4β2 nAChR", "set-up": "method as in PMID 25687449", "settings": "HEK293 membranes expressing α4β2 nAChRs; read-out: Binding affinity α4β2*; cited from earlier work"}, "α7 nAChR [17]": {"biological_target": "α7 nAChR", "set-up": "method as in PMID 25687449", "settings": "cited from earlier work"}, "[18]": {"settings": "frontal cortex values taken from Table 1"}}, "note": "Where two headings read alike, the source gives them in different places. Marks after values point to notes of the source that are not given here.", "data": [{"compound": "O=S1(=O)c2cc(N3CCN4CCC3CC4)ccc2-c2cccc(F)c21", "note": "[ASEM]", "values": [{"measurement": "Ki", "setting": "α7 nAChR [1]", "value": 0.37, "unit": "nM"}, {"measurement": "Ki", "setting": "α4β2 nAChR [2]", "value": 562, "unit": "nM"}, {"measurement": "α7/α4β2 Ratio", "setting": "α7 nAChR [3]", "value": 0.0007}]}, {"compound": "α-Iodobungarotoxin", "values": [{"measurement": "Binding affinity α4β2*", "setting": "α4β2* nAChR [4]", "value": ">1000 ^f nM"}, {"measurement": "Ki", "setting": "α7 nAChR [5]", "value": 0.5, "unit": "nM"}, {"measurement": "α4β2/α7 Ratio", "setting": "α7 nAChR [6]", "value": 2000}, {"measurement": "α7/α4β2 Ratio", "setting": "α7 nAChR [6]", "value": 0.0005}]}, {"compound": "Fc1ncccc1OC[C@@H]1C=CCN1", "note": "[Nifene]", "values": [{"measurement": "Ki", "setting": "α7 nAChR [7]", "value": 169, "unit": "nM"}, {"measurement": "Ki", "setting": "α4β2* nAChR [8]", "value": 1.07, "unit": "nM"}, {"measurement": "α7/α4β2 Ratio", "setting": "α4β2* nAChR [9]", "value": 338}, {"measurement": "α4β2/α7 Ratio", "setting": "α4β2* nAChR [10]; listed as with α4β2 value from 3H-epibatidine rat cortex", "value": 0.007}, {"measurement": "α7/α4β2 Ratio", "setting": "α4β2* nAChR [10]; α4β2 value from 3H-epibatidine rat cortex, α7 from rat cloned receptors", "value": 158}]}, {"compound": "c1ncc(N2CCN3CCC2CC3)cc1OCC1CCN1", "note": "[KS7, 3-(2-(S)-azetidinylmethoxy)-5-(1,4-diaza-bicyclo[3.2.2]nonane)pyridine]", "values": [{"measurement": "IC50", "setting": "α4β2* nAChR [11]; frontal cortex value taken from Table 1, read-out: Binding affinity α4β2*", "value": 109, "unit": "nM"}, {"measurement": "α4β2/α7 Ratio", "setting": "α4β2* nAChR [11]; [18]", "value": "0.01 ^j"}, {"measurement": "α7/α4β2 Ratio", "setting": "α4β2* nAChR [11]; [18]", "value": "91 ^j"}, {"measurement": "IC50", "setting": "α4β2* nAChR [11]; rat brain slices, Anterior Cingulate, read-out: Inhibition constants (IC50), [3H]Cytisine, α4β2* nAChRs", "value": 49.5, "unit": "nM"}, {"measurement": "IC50", "setting": "α4β2* nAChR [11]; rat brain slices, Frontal Cortex, read-out: Inhibition constants (IC50), [3H]Cytisine, α4β2* nAChRs", "value": 109, "unit": "nM"}, {"measurement": "IC50", "setting": "α4β2* nAChR [11]; rat brain slices, Striatum, read-out: Inhibition constants (IC50), [3H]Cytisine, α4β2* nAChRs", "value": 86.9, "unit": "nM"}, {"measurement": "IC50", "setting": "α4β2* nAChR [11]; rat brain slices, Subiculum, read-out: Inhibition constants (IC50), [3H]Cytisine, α4β2* nAChRs", "value": 172, "unit": "nM"}, {"measurement": "IC50", "setting": "α4β2* nAChR [11]; rat brain slices, Thalamus, read-out: Inhibition constants (IC50), [3H]Cytisine, α4β2* nAChRs", "value": 134, "unit": "nM"}, {"measurement": "IC50", "setting": "α4β2* nAChR [11]; rat brain, several brain regions (abstract), read-out: IC50 for [3H]cytisine radiolabeled sites", "value": "50 to 172", "unit": "nM"}, {"measurement": "α7/α4β2 Ratio", "setting": "α4β2* nAChR [11]; ratio of IC50 values, Anterior Cingulate", "value": 254}, {"measurement": "α7/α4β2 Ratio", "setting": "α4β2* nAChR [11]; ratio of IC50 values, Frontal Cortex", "value": 91}, {"measurement": "IC50", "setting": "α7 nAChR [12]; frontal cortex value taken from Table 1, read-out: Binding affinity α7*", "value": 9900, "unit": "nM"}, {"measurement": "IC50", "setting": "α7 nAChR [12]; rat brain slices, Anterior Cingulate, read-out: Inhibition constants (IC50), [125I]α-BuTX, α7* nAChRs", "value": 12600, "unit": "nM"}, {"measurement": "IC50", "setting": "α7 nAChR [12]; rat brain slices, Frontal Cortex, read-out: Inhibition constants (IC50), [125I]α-BuTX, α7* nAChRs", "value": 9900, "unit": "nM"}, {"measurement": "IC50", "setting": "α7 nAChR [12]; rat brain slices, Hippocampus, read-out: Inhibition constants (IC50), [125I]α-BuTX, α7* nAChRs", "value": 33200, "unit": "nM"}, {"measurement": "IC50", "setting": "α7 nAChR [12]; rat brain slices, Inferior Colliculus, read-out: Inhibition constants (IC50), [125I]α-BuTX, α7* nAChRs", "value": 46800, "unit": "nM"}]}, {"compound": "O=c1cccc2n1C[C@@H]1CNC[C@H]2C1", "note": "[Cytisine]", "values": [{"measurement": "α4β2/α7 Ratio", "setting": "human α4β2 nAChR [13]", "value": 0.002}, {"measurement": "α7/α4β2 Ratio", "setting": "human α4β2 nAChR [14]; heterologously expressed human receptors", "value": "544 ^e"}, {"measurement": "Ki", "setting": "human α4β2 nAChR [14]; read-out: Binding affinity α4β2*, human α4β2 in HEK293 cells", "value": 1.27, "unit": "nM"}, {"measurement": "Ki", "setting": "human α7 nAChR", "value": 691, "unit": "nM"}]}, {"compound": "O=S1(=O)c2cc(N3CCN4CCC3CC4)ccc2-c2cccc(I)c21", "note": "[IodoASEM]", "values": [{"measurement": "α7/α4β2 Ratio", "setting": "α7 nAChR [15]", "value": 0.0003}, {"measurement": "Ki", "setting": "α4β2 nAChR [16]", "value": 1710, "unit": "nM"}, {"measurement": "Ki", "setting": "α7 nAChR [17]; HEK293 membranes expressing α7 nAChRs, read-out: Binding affinity α7*", "value": 0.5, "unit": "nM"}, {"measurement": "α4β2/α7 Ratio", "setting": "α7 nAChR [17]; HEK293 membranes", "value": "3414 ^h"}]}]}
